Consider 2 compounds from US7335495B2, “Process for the isolation of pharmaceutical compound cyclosporin a from fungus fusarium nivale” (Council of Scientific and Industrial Research, priority 2002, dated 2008).

The test system of one assay is Aspergillus fresenii. As to the kind of experiment: MIC by disk diffusion method, Aspergillus fresenii. The assay is classed as cell-based. Particulars: disks of 50, 25, 12.5, 6.25 and 3.12 μg, 42-120 hrs at room temperature. The source says: (§1) Czapek Malt Agar (Himedia laboratories Ltd.) was used for culturing Tricholphytos mentagrophytes T. tonsurans, T. violaceum, Aspergillus fresnil and A niger, A. japonicus. Mucological Agar (Himedia Laboratories Ltd was used for Cryptocaccus neoformans and Candida sp.
(§2) Pathogeiic fungal strains of yeast and filamentous fungi (Identified and gifted by Dr. Savio from Goa Medical College, Bamoblim) were used for the test. Strains of Aspergillus were isolated from the infected wheat bread with sterile needles; fungal material was surface sterilized using 0.5% sodium hypochlorite for 2-3 minutes and then washed with small brush in sterile distilled water. This Aspergillus species was described earlier as food spoilage (Bhosale et. Al., 1999). […]
(§3) Innocula were adjusted to 50 μl of Cryptococcus neoformans, Candida sp., Trichophyrou tonsurans, T. violaceum and T. mentagrophytes, Aspergillus fresenil, A. niger, A. japonicus and spread on the appropriate plates, excess moisture was allowed to be absorbed for 10 minutes before applying on disks. […] Test plates were incubated for 42-120 hrs. at room temperature to obtain maximum growth and MIC was determined as lowest concentration of compound and antifungal agents resulting in a cleas zone of growth inhibition. […]
Background: Agar diffusion results depend on both activity and mobility in agar.

The test system of the next assay is A. japonicus. As to the kind of experiment: MIC by disk diffusion method, A. japonicus. In kind it is cell-based, Aspergillus japonicus. Particulars: disks of 50, 25, 12.5, 6.25 and 3.12 μg, 42-120 hrs at room temperature.
From the text: as §1, §2, §3

The test system of a further assay is A. niger. As to the kind of experiment: MIC by disk diffusion method, A. niger. In kind it is cell-based, Aspergillus niger. Particulars: disks of 50, 25, 12.5, 6.25 and 3.12 μg, 42-120 hrs at room temperature.
From the text: as §1, §2, §3

In a further assay the test system is Cryptococcus neoformans. As to the kind of experiment: MIC by disk diffusion method, Cryptococcus neoformans. The assay is classed as cell-based. The note with it: Cryoticiecus Neoformans; disks of 50, 25, 12.5, 6.25 and 3.12 μg; 42-120 hrs at room temperature.
From the text: as §1, §2, §3

The next assay concerns Candida sp. As to the kind of experiment: MIC by disk diffusion method, Candida sp. In kind it is cell-based. Particulars: disks of 50, 25, 12.5, 6.25 and 3.12 μg, 42-120 hrs at room temperature.
From the text: as §1, §2, §3

In assay [1] the test system is Trichophyton mentagrophytes. As to the kind of experiment: MIC by disk diffusion method, Trichophyton mentagrophytes. The assay is classed as cell-based. The note with it: disks of 50, 25, 12.5, 6.25 and 3.12 μg, 42-120 hrs at room temperature.
From the text: as §1, §2, §3

For another assay, the system named is T. tonsurans. As to the kind of experiment: MIC by disk diffusion method, T. tonsurans. Particulars: disks of 50, 25, 12.5, 6.25 and 3.12 μg, 42-120 hrs at room temperature. The assay is classed as cell-based, Trichophyton tonsurans.
From the text: as §1, §2, §3

The subject of a further assay is T. violaceum. As to the kind of experiment: MIC by disk diffusion method, T. violaceum. Particulars: disks of 50, 25, 12.5, 6.25 and 3.12 μg, 42-120 hrs at room temperature. The assay is classed as cell-based, Trichophyton violaceum.
From the text: as §1, §2, §3

Another assay relates to Fusarium sp. As to the kind of experiment: MIC by disk diffusion method, Fusarium sp. The assay is classed as cell-based. The note with it: disks of 50, 25, 12.5, 6.25 and 3.12 μg, 42-120 hrs at room temperature.

Regarding `C[C@@H]1[C@H](O)[C@@H](C)/C=C/C=C/C=C/C=C/C=C/C=C/C=C/[C@H](O[C@@H]2O[C@H](C)[C@@H](O)[C@H](N)[C@@H]2O)C[C@@H]2O[C@](O)(C[C@@H](O)C[C@@H](O)[C@H](O)CC[C@@H](O)C[C@@H](O)CC(=O)O[C@H]1C)C[C@H](O)[C@H]2C(=O)O` [Amphotericin B], the “MIC, Disk Diffusion Method” value in the assay with Aspergillus fresenii was 6.25-12.5 μg/disc^−1; against A. japonicus it was 6.25-12.5 μg/disc^−1; in the assay on A. niger, 6.25-12.5 μg/disc^−1; with Cryptococcus neoformans, 3.12-6.25 μg/disc^−1; with Candida sp., 3.12-6.25 μg/disc^−1; in assay [1], 3.12-6.25 μg/disc^−1. The “MIC, Disk Diffusion Method” value is 6.25-12.5 μg/disc^−1 against T. tonsurans, 6.25-12.5 μg/disc^−1 against T. violaceum and 12.5-25 μg/disc^−1 against Fusarium sp..

With `C[C@@H]1[C@H](O)[C@@H](C)/C=C/C=C/CC/C=C/C=C/C=C/C=C/C(O[C@H]2O[C@H](C)[C@@H](O)[C@H](N)[C@@H]2O)CC2O[C@](O)(CC(O)C(O)CCC(O)CC(O)CC(O)CC(=O)O[C@H]1C)CC(O)C2C(=O)O` (some centres unmarked) [Nystatin], the “MIC, Disk Diffusion Method” value in the assay with Cryptococcus neoformans and against Candida sp. was 3.12-6.25 μg/disc^−1 in each case.
